Test results published in patent US4254147A, “Pharmaceutical composition for total parenteral nutrition” (priority 1978, dated 1981).

What was measured:
[1] = LD50 acute toxicity, rat (Litchfield and Wilcoxon method); conditions: in vivo
Text: (§1) As known, carnitine contains an asimmetric atom and consequently exists in two stereoisomers. […] Thus, the LD50 in rats and mice assessed for various routes of administration according to the Litchfield and Wilcoxon method is as shown in the following Table A. (Litchfield, J. T., and Wilcoxon, F., J. Pharm. Exptl. Therap. 96, 99. 1949).

[2] = LD50 acute toxicity, mouse (Litchfield and Wilcoxon method); conditions: in vivo
Text: as §1

[3] = Activity and toxicity comparison of carnitine isomers (in words); conditions: isomers of carnitine compared
Text: as §1

[4] = Effective utilization of exogenous glycerides on daily carnitine dosing; assay type: in vivo, patient
Experimental: The dose of carnitine which is administered will be determined by the attending physician having regard to the age, weight and condition of the patient, using sound professional judgement. Although effective utilization of exogenous glycerides can be noticed at doses as low as from 30 to 50 mg/kg of body weight daily, a dose of from about 150 to about 200 mg/kg of body weight daily is preferred.

In the case of `C[N+](C)(C)CC(O)CC(=O)[O-]` (racemic) [D,L-carnitine], the LD50 ([1]; iv) is reported as 995 mg/kg, the LD50 ([2]; iv) is reported as 610 mg/kg and the LD50 ([2]; sc) is reported as 6000 mg/kg.

For `C[N+](C)(C)C[C@@H](O)CC(=O)[O-]` [D-carnitine], the LD50 ([1]; sc) was 10000 mg/kg, the LD50 ([2]; sc) was 5400 mg/kg and the “toxicity of the isomer” value [3] was “slightly more toxic”.

For `C[N+](C)(C)C[C@H](O)CC(=O)[O-]` [L-carnitine], the LD50 ([2]; sc) was 7000 mg/kg and the “activity of the isomer” value [3] was “more active”.

For `C[N+](C)(C)CC(O)CC(=O)[O-]` (stereo not shown) [carnitine], the minimal effective dose ([4]; Homo sapiens, daily carnitine dose, read-out: dose at which effective utilization of exogenous glycerides can be noticed) was 30 to 50 mg/kg/day and the toxicity of carnitine ([4]; in vivo) was “extremely low toxicity”.
